Where a name gives a salt, the structure may show the parent alone.
Tests used:
tumor cell A549 = experiment: Tumor cell inhibition, Cell Titer-Glo cell viability; format: cell-based; conditions: Homo sapiens, A549 cells, 72 h
Protocol: The activities of example compounds to tumor cell A549 were evaluated.
(§1) Experimental materials: DMEM high-glucose cell culture media (Hyclone Company), fetal calf serum (FBS) (Gibco Company), penicillin and streptomycin were purchased from North China Pharmaceutical Co., Ltd, phosphate buffer saline (PBS) was purchased from Gibco Company, Cell Titer-Glo® cell viability detection reagent was purchased from Promega Company, pancreatin and dimethylsulfoxide (DMSO) were products of Sigma Company. A549 cell line (human lung adenocarcinoma cell line) was purchased from ATCC.
(§2) The cells were inoculated on a 96-well plate with white wall and penetrative bottom (Costar) in amount of 5000 cells per well, cultured at condition of 37° C., 5% CO2 for 24 h. The compounds to be tested were dissolved with DMSO and diluted to 100 mM, to obtain mother liquids of the compounds.
(§3) DMEM culture solution containing 2% FBS was used to diluted the compounds, in which concentration gradients were 3, and concentration range was 100 μM to 3 nM. The compounds in various dilution degrees were added to the cultured cells on the 96-well plate, 100 μl per well. Culture was performed at 37° C., CO2 for 72 h, supernatant was discarded, and cell viability detection test was performed.
(§4) AfterCell Titer-Glo® reaction buffer solution was mixed with isometric substrate, the mixture was added to 96-well plate, 100 μl per well. Cell lysis was induced by horizontally shaking for 4 min. Reaction signal was stabilized by balancing at room temperature for 15 min. Chemiluminescence units in each well of the 96-well plate were detected by using chemiluminescence detector.
(§5) Inhibition rates at different dilution degrees of each compound were calculated according to chemiluminescence value of each well, and Origin 8.0 software was used for S-type curve fitting of each compound, and for calculating EC50 value.

[1] = system: multi-drug resistant tumor cell line MES-SA; experiment: Inhibition of drug-resistant tumor cell line, Cell Titer-Glo cell viability; therapeutic index against MRC5 cells; format: cell-based; conditions: Homo sapiens, 72 h
Protocol: The activity of example compounds to multi-drug resistant tumor cell line MES-SA was evaluated.
as §1, with “MES-SA” for “A549”, “uterine sarcoma” for “lung adenocarcinoma”, “ATCC. MRC5 cell (human embryonic lung fibroblast) was purchased from ATCC.” for “ATCC.”
as §2
as §3, with “0.046 μM.” for “3 nM.”
as §4
as §5, with “value. The ratio of EC50 value of compound for MRC5 cell to EC50 value of compound for MES-SA cell was used as therapeutic index for the compound.” for “value.”

[2] = Solubility test (Chinese Pharmacopoeia 2010, Part II); format: physicochemical; conditions: water, thermodynamic from solid

Structure (SMILES) | IC50 (tumor cell A549) | solubility [2] | melting point | IC50 [1]
CO[C@H]1C[C@@H]2CC[C@@H](C)[C@@](O)(O2)C(=O)C(=O)N2CCCC[C@H]2C(=O)O[C@H]([C@H](C)C[C@@H]2CC[C@@H](OC(=O)C[n+]3ccccc3)[C@H](OC)C2)CC(=O)[C@H](C)/C=C(\C)[C@@H](O)[C@@H](OC)C(=O)[C@H](C)C[C@H](C)/C=C/C=C/C=C/1C.[Br-] [Example 10, 42-O-carbonylmethyl-(pyridine bromide salt-1-yl)-rapamycin] | 66.3 µM |  | 135 to 137 °C | 10.9 µM
CO[C@H]1C[C@@H]2CC[C@@H](C)[C@@](O)(O2)C(=O)C(=O)N2CCCC[C@H]2C(=O)O[C@H]([C@H](C)C[C@@H]2CC[C@@H](OC(=O)C[n+]3cccc(O)c3)[C@H](OC)C2)CC(=O)[C@H](C)/C=C(\C)[C@@H](O)[C@@H](OC)C(=O)[C@H](C)C[C@H](C)/C=C/C=C/C=C/1C.[Br-] [Example 12, 42-O-carbonylmethyl-(3-hydroxy-pyridine bromide salt-1-yl)-rapamycin] | 51.5 µM |  | 146 to 148 °C | < 0.046 µM
CO[C@H]1C[C@@H]2CC[C@@H](C)[C@@](O)(O2)C(=O)C(=O)N2CCCC[C@H]2C(=O)O[C@H]([C@H](C)C[C@@H]2CC[C@@H](O)[C@H](OC)C2)CC(=O)[C@H](C)/C=C(\C)[C@@H](OC(=O)C[n+]2csc(C)c2C)[C@@H](OC)C(=O)[C@H](C)C[C@H](C)/C=C/C=C/C=C/1C [Example 6, 31-O-carbonylmethyl-(4,5-dimethyl-thiazole bromide salt-3-yl)-rapamycin] | 52.3 µM |  |  | < 0.046 µM
CO[C@H]1C[C@@H]2CC[C@@H](C)[C@@](O)(O2)C(=O)C(=O)N2CCCC[C@H]2C(=O)O[C@H]([C@H](C)C[C@@H]2CC[C@@H](OC(=O)C[n+]3ccccc3)[C@H](OC)C2)CC(=O)[C@H](C)/C=C(\C)[C@@H](OC(=O)C[n+]2ccccc2)[C@@H](OC)C(=O)[C@H](C)C[C@H](C)/C=C/C=C/C=C/1C.[Br-].[Br-] [Example 7, 31,42-O-carbonylmethyl-(pyridine bromide salt-1-yl)-rapamycin] | 46.7 µM | 85 mg/mL | 140 to 142 °C | < 0.046 µM
CO[C@H]1C[C@@H]2CC[C@@H](C)[C@@](O)(O2)C(=O)C(=O)N2CCCC[C@H]2C(=O)O[C@H]([C@H](C)C[C@@H]2CC[C@@H](O)[C@H](OC)C2)CC(=O)[C@H](C)/C=C(\C)[C@@H](OC(=O)C[n+]2ccccc2)[C@@H](OC)C(=O)[C@H](C)C[C@H](C)/C=C/C=C/C=C/1C.[Br-] [Example 16, 31-O-carbonylmethyl-(pyridine bromide salt-1-yl)-rapamycin] | 57.7 µM |  | 140 to 142 °C | < 0.046 µM
CO[C@H]1C[C@@H]2CC[C@@H](C)[C@@](O)(O2)C(=O)C(=O)N2CCCC[C@H]2C(=O)O[C@H]([C@H](C)C[C@@H]2CC[C@@H](O)[C@H](OC)C2)CC(=O)[C@H](C)/C=C(\C)[C@@H](OC(=O)C[n+]2cccc(C)c2)[C@@H](OC)C(=O)[C@H](C)C[C@H](C)/C=C/C=C/C=C/1C.[Br-] [Example 15, 31-O-carbonylmethyl-(3-methyl-pyridine bromide salt-1-yl)-rapamycin] | 52.7 µM |  | 138 to 140 °C | < 0.046 µM
CO[C@H]1C[C@@H]2CC[C@@H](C)[C@@](O)(O2)C(=O)C(=O)N2CCCC[C@H]2C(=O)O[C@H]([C@H](C)C[C@@H]2CC[C@@H](OC(=O)C[n+]3cccc(O)c3)[C@H](OC)C2)CC(=O)[C@H](C)/C=C(\C)[C@@H](OC(=O)C[n+]2cccc(O)c2)[C@@H](OC)C(=O)[C@H](C)C[C@H](C)/C=C/C=C/C=C/1C.[Br-].[Br-] [Example 8, 31,42-O-carbonylmethyl-(3-hydroxy-pyridine bromide salt-1-yl)-rapamycin] | 46 µM | 0.1 mg/mL | 120 to 124 °C | < 0.046 µM

These reach a lower IC50 (tumor cell A549). Values come first.

IC50 (tumor cell A549) | solubility [2] | melting point | Structure (SMILES) | IC50 [1]
7.4 µM |  |  | CO[C@H]1C[C@@H]2CC[C@@H](C)[C@@](O)(O2)C(=O)C(=O)N2CCCC[C@H]2C(=O)O[C@H]([C@H](C)C[C@@H]2CC[C@@H](OC(=O)C[n+]3csc(C)c3C)[C@H](OC)C2)CC(=O)[C@H](C)/C=C(\C)[C@@H](O)[C@@H](OC)C(=O)[C@H](C)C[C@H](C)/C=C/C=C/C=C/1C [Example 5, 42-O-carbonylmethyl-(4,5-dimethyl-thiazole bromide salt-3-yl)-rapamycin] | < 0.046 µM
25.1 µM | 47 mg/mL | 159 to 162 °C | CO[C@H]1C[C@@H]2CC[C@@H](C)[C@@](O)(O2)C(=O)C(=O)N2CCCC[C@H]2C(=O)O[C@H]([C@H](C)C[C@@H]2CC[C@@H](OC(=O)C[n+]3cccc(C)c3)[C@H](OC)C2)CC(=O)[C@H](C)/C=C(\C)[C@@H](OC(=O)C[n+]2cccc(C)c2)[C@@H](OC)C(=O)[C@H](C)C[C@H](C)/C=C/C=C/C=C/1C.[Br-].[Br-] [Example 9, 31,42-O-carbonylmethyl-(3-methyl-pyridine bromide salt-1-yl)-rapamycin] | 7.21 µM
19.3 µM |  | 130 to 133 °C | CO[C@H]1C[C@@H]2CC[C@@H](C)[C@@](O)(O2)C(=O)C(=O)N2CCCC[C@H]2C(=O)O[C@H]([C@H](C)C[C@@H]2CC[C@@H](OC(=O)C[n+]3cscc3C)[C@H](OC)C2)CC(=O)[C@H](C)/C=C(\C)[C@@H](O)[C@@H](OC)C(=O)[C@H](C)C[C@H](C)/C=C/C=C/C=C/1C.[Br-] [Example 2, 42-O-carbonylmethyl-(4-methyl-thiazole bromide salt-3-yl)-rapamycin] | < 0.046 µM
6.23 µM | 100 mg/mL |  | CO[C@H]1C[C@@H]2CC[C@@H](C)[C@@](O)(O2)C(=O)C(=O)N2CCCC[C@H]2C(=O)O[C@H]([C@H](C)C[C@@H]2CC[C@@H](OC(=O)C[n+]3csc(C)c3C)[C@H](OC)C2)CC(=O)[C@H](C)/C=C(\C)[C@@H](OC(=O)C[n+]2csc(C)c2C)[C@@H](OC)C(=O)[C@H](C)C[C@H](C)/C=C/C=C/C=C/1C.[Br-].[Br-] [Example 4, 31,42-O-carbonylmethyl-(4,5-dimethyl-thiazole bromide salt-3-yl)-rapamycin] | < 0.046 µM
3.04 µM |  | 130 to 132 °C | CO[C@H]1C[C@@H]2CC[C@@H](C)[C@@](O)(O2)C(=O)C(=O)N2CCCC[C@H]2C(=O)O[C@H]([C@H](C)C[C@@H]2CC[C@@H](O)[C@H](OC)C2)CC(=O)[C@H](C)/C=C(\C)[C@@H](OC(=O)C[n+]2cscc2C)[C@@H](OC)C(=O)[C@H](C)C[C@H](C)/C=C/C=C/C=C/1C.[Br-] [Example 3, 31-O-carbonylmethyl-(4-methyl-thiazole bromide salt-3-yl)-rapamycin] | < 0.046 µM
44 µM | 120 mg/mL | 181 to 183 °C | CO[C@H]1C[C@@H]2CC[C@@H](C)[C@@](O)(O2)C(=O)C(=O)N2CCCC[C@H]2C(=O)O[C@H]([C@H](C)C[C@@H]2CC[C@@H](OC(=O)C[n+]3ccc(C)cc3)[C@H](OC)C2)CC(=O)[C@H](C)/C=C(\C)[C@@H](OC(=O)C[n+]2ccc(C)cc2)[C@@H](OC)C(=O)[C@H](C)C[C@H](C)/C=C/C=C/C=C/1C.[Br-].[Br-] [Example 14, 31,42-O-carbonylmethyl-(4-methyl-pyridine bromide salt-1-yl)-rapamycin] | < 0.046 µM
17.4 µM | 34.5 mg/mL | 142 to 145 °C | CO[C@H]1C[C@@H]2CC[C@@H](C)[C@@](O)(O2)C(=O)C(=O)N2CCCC[C@H]2C(=O)O[C@H]([C@H](C)C[C@@H]2CC[C@@H](OC(=O)C[n+]3cscc3C)[C@H](OC)C2)CC(=O)[C@H](C)/C=C(\C)[C@@H](OC(=O)C[n+]2cscc2C)[C@@H](OC)C(=O)[C@H](C)C[C@H](C)/C=C/C=C/C=C/1C.[Br-].[Br-] [Example 1, 31,42-O-carbonylmethyl-(4-methyl-thiazole bromide salt-3-yl)-rapamycin] | < 0.046 µM

— US10160767B2 (Institute of Pharmacology and Toxicology Academy of …, priority 2014, dated 2018)
